# Results as given in patent publication US20240350444A1, “COMBINATION COMPRISING DECANOIC ACID FOR THE TREATMENT OF EPILEPSY” (priority 2017, published 2024).
# Read-outs that look alike come from different tables or passages of the source.
# How the values were obtained:
# [1] = patients on the MCT ketogenic diet; cited from earlier work
# [2] = target: T1, wild type AMPA receptor (GluA3) (Homo sapiens, UniProt P42263); assay: Direct AMPA receptor current recording in Xenopus oocytes, wild type GluA3; type: cell-based
# T1 construct: expressed in transfected cells; host or cells: Xenopus oocytes
# T1 sequence (P42263 29-894, species assumed): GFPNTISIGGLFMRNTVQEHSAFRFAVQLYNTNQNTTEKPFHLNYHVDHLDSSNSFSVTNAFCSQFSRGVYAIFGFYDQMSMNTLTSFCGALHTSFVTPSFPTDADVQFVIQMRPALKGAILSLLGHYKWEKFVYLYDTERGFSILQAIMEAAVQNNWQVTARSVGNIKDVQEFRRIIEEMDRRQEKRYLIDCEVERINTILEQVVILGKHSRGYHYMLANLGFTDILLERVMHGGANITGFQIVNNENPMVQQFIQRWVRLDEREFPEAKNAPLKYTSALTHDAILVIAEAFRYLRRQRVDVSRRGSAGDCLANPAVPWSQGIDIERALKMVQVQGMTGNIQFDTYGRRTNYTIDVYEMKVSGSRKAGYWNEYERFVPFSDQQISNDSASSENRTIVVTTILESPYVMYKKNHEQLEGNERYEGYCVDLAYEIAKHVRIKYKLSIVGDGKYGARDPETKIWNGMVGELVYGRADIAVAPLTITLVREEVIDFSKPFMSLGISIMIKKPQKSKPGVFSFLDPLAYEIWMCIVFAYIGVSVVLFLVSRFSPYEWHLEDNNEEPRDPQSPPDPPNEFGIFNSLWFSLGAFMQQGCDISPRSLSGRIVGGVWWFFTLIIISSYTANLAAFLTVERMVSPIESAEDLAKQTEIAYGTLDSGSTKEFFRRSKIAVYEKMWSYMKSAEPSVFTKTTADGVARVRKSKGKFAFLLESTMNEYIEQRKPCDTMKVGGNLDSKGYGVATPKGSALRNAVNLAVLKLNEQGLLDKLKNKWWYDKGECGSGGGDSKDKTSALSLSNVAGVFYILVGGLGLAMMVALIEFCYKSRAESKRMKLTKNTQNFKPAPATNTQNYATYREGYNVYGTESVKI
# Experimental: (§1) FIG. 1. AMPA (GluA2/3, GluA1/2, or GluA3) receptors were expressed in Xenopus oocytes, and perfused with L-glutamate (100 μM) and the indicated compound, unless stated otherwise. Currents were recorded using TEVC. (A) Representative current traces of inhibitory dose-response curves for perampanel on GluA1/2 and GluA2/3 receptors. (B) Dose-response curve showing inhibition of GluA1/2 (N=10) and GluA2/3 (N=6) by perampanel, with respective IC50 values shown in bar graph inset. (C) Effect of varying perampanel concentrations on glutamate EC50 against GluA1/2. Points were normalised to maximal response and represent the mean and SEM of 6 (glutamate only) and 5 (with 2.5 μM and 5 μM perampanel). (D) Quantitative representation of mean currents recorded in wildtype and mutant GluA3 normalised to maximal responses in the presence of perampanel (N=5 for wildtype and N=6 for mutant) and decanoic acid, DA (N=4 for both wildtype and mutant).
# (§2) As previously described (Chang et al. 2016. Brain 139: 431-43), AMPA receptor subunits (GluA2/3, GluA1/2, and GluA3) were expressed in Xenopus oocytes and agonist elicited inward currents were used to measure inhibition by decanoic acid (Sigma Ltd) and perampanel (Apexmol Technology Co. Ltd).
# (§3) To confirm this, we expressed a GYKI resistant subunit GluA3 mutant (11) and assessed it for sensitivity to perampanel and decanoic acid (FIG. 1C).
# AMPA receptor GluA1/2 = target: T2, AMPA receptor GluA1/2 (Homo sapiens, UniProt P42261+P42262); assay: Direct AMPA receptor current recording (TEVC) in Xenopus oocytes, GluA1/2; type: cell-based
# T2 construct: expressed in transfected cells; host or cells: Xenopus laevis oocytes
# T2 sequence (P42261 19-906): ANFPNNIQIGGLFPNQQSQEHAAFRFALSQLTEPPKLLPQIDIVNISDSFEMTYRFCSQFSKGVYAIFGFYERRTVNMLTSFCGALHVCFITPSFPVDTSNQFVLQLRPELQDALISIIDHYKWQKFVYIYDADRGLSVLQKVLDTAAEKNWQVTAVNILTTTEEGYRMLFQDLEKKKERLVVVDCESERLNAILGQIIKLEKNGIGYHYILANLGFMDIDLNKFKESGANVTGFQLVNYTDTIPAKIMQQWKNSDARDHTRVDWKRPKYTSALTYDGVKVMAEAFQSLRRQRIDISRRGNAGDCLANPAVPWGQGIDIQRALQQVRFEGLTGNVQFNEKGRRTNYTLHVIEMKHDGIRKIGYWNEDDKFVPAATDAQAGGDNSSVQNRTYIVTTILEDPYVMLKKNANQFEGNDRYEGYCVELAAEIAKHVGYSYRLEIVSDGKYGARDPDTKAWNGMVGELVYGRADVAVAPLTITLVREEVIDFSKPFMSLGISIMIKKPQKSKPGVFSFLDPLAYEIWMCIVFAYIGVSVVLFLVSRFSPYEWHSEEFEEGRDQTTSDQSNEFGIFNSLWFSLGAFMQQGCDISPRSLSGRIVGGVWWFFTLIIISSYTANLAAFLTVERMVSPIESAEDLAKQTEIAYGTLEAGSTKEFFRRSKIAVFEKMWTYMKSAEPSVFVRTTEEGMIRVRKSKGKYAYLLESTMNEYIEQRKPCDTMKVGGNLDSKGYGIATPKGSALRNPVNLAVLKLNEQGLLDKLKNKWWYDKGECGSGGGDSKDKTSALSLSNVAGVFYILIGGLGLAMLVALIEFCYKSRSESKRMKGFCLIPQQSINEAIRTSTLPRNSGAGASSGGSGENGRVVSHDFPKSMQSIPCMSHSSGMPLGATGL
# T2 sequence (P42262 22-883 limits assumed): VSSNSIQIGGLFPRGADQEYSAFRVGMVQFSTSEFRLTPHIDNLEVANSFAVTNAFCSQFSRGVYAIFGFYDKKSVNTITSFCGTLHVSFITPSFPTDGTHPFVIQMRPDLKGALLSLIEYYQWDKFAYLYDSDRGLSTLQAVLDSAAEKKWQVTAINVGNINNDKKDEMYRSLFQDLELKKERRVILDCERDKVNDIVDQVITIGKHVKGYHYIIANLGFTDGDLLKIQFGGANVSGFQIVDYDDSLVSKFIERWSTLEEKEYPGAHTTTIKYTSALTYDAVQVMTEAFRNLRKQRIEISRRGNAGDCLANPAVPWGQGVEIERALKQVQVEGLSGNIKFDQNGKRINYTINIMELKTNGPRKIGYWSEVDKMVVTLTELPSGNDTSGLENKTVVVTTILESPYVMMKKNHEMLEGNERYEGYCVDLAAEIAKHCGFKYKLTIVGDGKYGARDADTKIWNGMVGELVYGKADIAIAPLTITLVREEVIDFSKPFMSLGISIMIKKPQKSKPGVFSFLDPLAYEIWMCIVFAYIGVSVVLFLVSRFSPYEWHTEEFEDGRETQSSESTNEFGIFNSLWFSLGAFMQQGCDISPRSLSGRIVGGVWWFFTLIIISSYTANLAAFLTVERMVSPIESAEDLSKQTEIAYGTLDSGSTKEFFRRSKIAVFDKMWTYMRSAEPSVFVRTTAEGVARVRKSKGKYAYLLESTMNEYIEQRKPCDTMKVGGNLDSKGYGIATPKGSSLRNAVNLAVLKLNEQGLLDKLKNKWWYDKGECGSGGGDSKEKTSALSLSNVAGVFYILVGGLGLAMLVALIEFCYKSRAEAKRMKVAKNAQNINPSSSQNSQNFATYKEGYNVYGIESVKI
# Experimental: as §1
# (§4) FIG. 2. AMPA (GluA2/3, GluA 1/2, or GluA3) receptors were expressed in Xenopus oocytes, and perfused with L-glutamate (100 μM) and the indicated compound, unless stated otherwise. Currents were recorded using TEVC. (A) Representative current traces of inhibitory dose-response curves for decanoic acid (DA) on GluA2/3 receptors at 1 μM or 4 μM perampanel. Dose-response inhibition curves for decanoic acid at 1μM or 4 μM perampanel on (B) GluA2/3 and (C) GluA1/2 receptors. Points were normalised to maximal response to L-glutamate and solvent, 1 μM perampanel or 4 μM perampanel and represent means and SEM of 8 to 13 readings. Inserts show respective ICs50 values in the presence of perampanel. (D) Representative current traces of inhibitory dose-response curves for perampanel on GluA2/3 receptors at 50 μM to 100 μM decanoic acid. (E), (F) Dose-response inhibition curves for perampanel at 50 μM and 100 μM DA on GluA2/3 (E) and GluA1/2 (F) receptors. Points were normalised to maximal response to L-glutamate with solvent, 50 μM and 100 μM DA and represent means and SEM of 8 to 13 readings. Inserts show respective perampanel IC50 values in the presence of DA. Scale bars correspond to 150 nA in GluA1/2 and 30 nA in GluA2/3 (A), 50 nA (E) and 200 nA (H). Scale bars correspond to 60 nA for +1 μM perampanel and 75 nA for +4 μM perampanel (K) and 200 nA (L).
# as §2
# AMPA receptor GluA2/3 = target: T3, AMPA receptor GluA2/3 (Homo sapiens, UniProt P42262+P42263); assay: Direct AMPA receptor current recording (TEVC) in Xenopus oocytes, GluA2/3; type: cell-based
# T3 construct: expressed in transfected cells; host or cells: Xenopus laevis oocytes
# T3 sequence (P42262 22-883 limits assumed): as above
# T3 sequence (P42263 29-894): as the sequence (P42263 29-894, species assumed) above
# Experimental: as §1, §4, §2
# [3] = rodent models; cited from earlier work
# [4] = system: PTZ-induced epileptiform activity in rat entorhinal cortex-hippocampal slices; assay: Rat hippocampal PTZ seizure-like activity analysis; type: cell-based; details: for IC50: Rattus norvegicus, read-out: decanoic acid IC50 for epileptiform activity; for seizure activity: modelled data
# Experimental: FIG. 3. (A) Epileptiform (paroxysmal) activity was induced in rat entorhinal cortex-hippocampal slices by application of PTZ (2 mM) and [K+] (to 6 mM), and recorded over time at fixed perampanel and increasing decanoic acid (DA) concentration. (B) Epileptiform activity was normalised to activity in absence or presence of each concentration (100 nM and 500 nM) and shown at variable DA concentrations. […] Data is derived from at least three biological repeats.
# Seizure-like activity was induced, as previously described (Chang et al. 2016. Brain 139: 431-43), in rat entorhinal cortex-hippocamal slices by application of PTZ (2 mM) to the perfusate and [K+] was increased (to 6 mM). Perampanel (100 or 500 nM) or DMSO was applied to the perfusate, and then decanoic acid (Sigma Ltd) was applied at increasing concentrations at 10 minutes intervals. The change in the frequency of the discharges was measured at minute intervals, averaged every 5 minutes, and normalised to baseline. Data were analyzed using Origin (OriginLab Corporation, MA USA) and SPSS (IBM, UK) with IC50 values calculated from fitting data values with a Hill plot. Statistical analysis was performed using a one-way ANOVA with two-way Dunnett's post hoc test.
# [5] = Decanoic acid levels in patients on the MCT ketogenic diet; type: in vivo; details: extrapolating the rodent ratio to human brain
# [6] = system: GYKI resistant subunit GluA3 mutant; assay: Direct AMPA receptor current recording in Xenopus oocytes, GYKI resistant GluA3 mutant; type: cell-based
# Experimental: as §1, §2, §3
# [7] = IC50, inhibition of AMPA receptor currents, perampanel alone, currents elicited by glutamate, Xenopus oocytes (FIG. 1B)
# [8] = read-out: glutamate evoked maximal response reduced to
smiles,measurement,setting,value
CCCCCCCCCC(=O)O [decanoic acid],average concentration of decanoic acid in peripheral blood,[1],157 µM
same,reduction of glutamate-induced currents,[2]; decanoic acid 1 mM,74.5%
same,IC50,"AMPA receptor GluA1/2; in the absence of perampanel, read-out: decanoic acid IC50 for GluA1/2",920 µM
same,IC50,"AMPA receptor GluA1/2; in the presence of 1 μM perampanel, read-out: decanoic acid IC50 for GluA1/2",210 µM
same,IC50,"AMPA receptor GluA1/2; in the presence of 4 μM perampanel, read-out: decanoic acid IC50 for GluA1/2",90 µM
same,IC50,"AMPA receptor GluA2/3; in the absence of perampanel, read-out: decanoic acid IC50 for GluA2/3",520 µM
same,IC50,"AMPA receptor GluA2/3; in the presence of 1 μM perampanel, read-out: decanoic acid IC50 for GluA2/3",100 µM
same,IC50,"AMPA receptor GluA2/3; in the presence of 4 μM perampanel, read-out: decanoic acid IC50 for GluA2/3",40 µM
same,ratio of decanoic acid in brain to blood plasma,[3],around 0.7
same,IC50,[4]; at 100 nM perampanel,196 µM
same,IC50,[4]; at 500 nM perampanel,122 µM
same,IC50,[4]; without perampanel,352 µM
same,seizure activity,[4]; decanoic acid 10 μM combined with perampanel 100 nM,76.8%
same,seizure activity (baseline inhibition reduced to),[4]; decanoic acid 10 μM with perampanel 500 nM,69.6%
same,concentration giving block of epileptiform activity,[4]; decanoic acid alone,1000 µM
same,concentration at which epileptiform activity was reduced,"[4]; decanoic acid alone, increasing concentrations",300 µM
same,concentration giving block in seizure activity,[4]; decanoic acid combined with perampanel 100 nM,600 µM
same,average concentration of decanoic acid in the brain,[5],around 110 μM
same,reduction of glutamate-induced currents,[6]; decanoic acid 1 mM,72.8%
"N#Cc1ccccc1-c1cc(-c2ccccn2)cn(-c2ccccc2)c1=O [perampanel, 3-(2-Cyanophenyl)-5-(2-pyridyl)-1-phenyl-1,2-dihydropyridin-2-one]",reduction of glutamate-induced currents,[2]; perampanel 20 μM,94.7%
same,IC50,AMPA receptor GluA1/2; [7],1.12 µM
same,reduction in the IC50 value for perampanel,"AMPA receptor GluA1/2; in combination with decanoic acid, GluA1/2",~3 fold
same,manner of inhibition of AMPA receptor currents,AMPA receptor GluA1/2; increasing glutamate concentrations not reversing inhibition (FIG. 1C),non-competitive
same,IC50,AMPA receptor GluA1/2; perampanel IC50 in GluA1/2,2.1 µM
same,IC50,"AMPA receptor GluA1/2; perampanel IC50 in GluA1/2, in the absence of DA (FIG. 2F)",6.2 µM
same,IC50,"AMPA receptor GluA1/2; perampanel IC50 in GluA1/2, in the presence of DA",2.2 µM
same,Emax at 2.5 µM,AMPA receptor GluA1/2; [8],75.2%
same,Emax at 5 µM,AMPA receptor GluA1/2; [8],16.9%
same,IC50,AMPA receptor GluA2/3; [7],1.51 µM
same,reduction in the IC50 value for perampanel,"AMPA receptor GluA2/3; in combination with decanoic acid, GluA2/3",~3 fold
same,IC50,"AMPA receptor GluA2/3; perampanel IC50 in GluA2/3, in the absence of DA (FIG. 2E)",5.1 µM
same,IC50,"AMPA receptor GluA2/3; perampanel IC50 in GluA2/3, in the presence of DA at 50 mM",1.7 µM
same,IC50,"AMPA receptor GluA2/3; perampanel IC50 in GluA2/3, in the presence of DA at 100 Mm",1.6 µM
same,increase in the inhibition of the AMPA receptor by perampanel,"AMPA receptor GluA2/3; with 100 μM decanoic acid, subunit combination not specified",3 fold
same,seizure activity,"[4]; perampanel 100 nM, in the absence of decanoic acid",95.6%
same,reduction of glutamate-induced currents,[6]; perampanel 20 μM,54.3%
